Assay [1] concerns the target Syk (356-635 amino acids) catalytic domain (Homo sapiens (Human), UniProt P43405). As to the kind of experiment: Inhibition of enzymatic Syk kinase activity (radiometric). Format: biochemical. The method in brief:
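Radiometric filter-binding format: 32P transfer from γ-32P-ATP onto pG4T, scintillation-counted after acid washes of P81 paper. Syk kinase domain (356-635), 0.035–7.5 ng per reaction, was exposed to compound for 30 minutes at room temperature before a 10-minute, 30° C. reaction with ATP (100 μM stock). Inhibition derived from counts with versus without compound.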

In the next assay the target is JAK2 (Homo sapiens (Human), UniProt O60674). As to the kind of experiment: Inhibition of enzymatic JAK2 kinase activity (TR-FRET). Format: biochemical. In outline: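 TR-FRET read-out (Eu antibody donor, Ulight poly Glu-Tyr acceptor, 665/615 nm ratio) after a 60 min RT kinase reaction with ATP, begun following 30 min compound–enzyme preincubation. Stopped by EDTA; inhibition expressed as 100 minus % activity of positive control.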
Chain of JAK2 (O60674 808-1132): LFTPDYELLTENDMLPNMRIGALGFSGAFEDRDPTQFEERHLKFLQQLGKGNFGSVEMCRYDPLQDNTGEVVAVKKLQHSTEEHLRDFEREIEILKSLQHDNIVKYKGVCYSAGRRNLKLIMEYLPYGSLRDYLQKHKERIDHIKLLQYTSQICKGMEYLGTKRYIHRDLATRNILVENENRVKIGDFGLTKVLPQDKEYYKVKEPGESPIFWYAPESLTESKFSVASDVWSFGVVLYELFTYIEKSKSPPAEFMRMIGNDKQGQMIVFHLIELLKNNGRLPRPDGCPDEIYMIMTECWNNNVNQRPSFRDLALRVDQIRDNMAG
(In TR-FRET formats the signal depends on donor and acceptor labels being close together.)

Another assay relates to RBL2H3 cells. Nature of the assay: Degranulation assay: β-hexosaminidase release during immune complex mediated degranulation. Format: cell-based, rat. The conditions noted are these: Rattus norvegicus. In outline: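 Fluorometric β-NAG read-out (Ex 355, Em 460 nm; 30 min, RT) of supernatant after DNP-BSA stimulation (45–60 min) of anti-DNP IgE-sensitized RBL2H3 cells. Compounds (0.5% DMSO) added 15 min before antigen; degranulation expressed as % β-hexosaminidase release or inhibition.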

[2] abbreviates: RBL-2H3, 1 μM, Assay Protocol B (96 well format), read-out: Degranulation % inhibition at 1 μM.
The mark [3] stands for this setting: RBL-2H3, Assay Protocol B (96 well format), read-out: Degranulation EC50.
Where [4] appears, read: RBL-2H3, 1 μM, Assay Protocol A (24 well format), read-out: Degranulation % inhibition at 1 μM.

Where a name gives a salt, the structure may show the parent alone. Read-outs that look alike come from different tables or passages of the source.

Usually IC50 stands for the midpoint of a concentration-inhibition curve. A word on the inhibition: it is the share of the control response that was lost under treatment. In general, EC50 refers to the concentration needed to bring the measured effect to its halfway point. `N#CCC1CCN(c2nc(Nc3ccc(N4CCC(CO)CC4)cc3)c3c(=O)[nH]ncc3n2)CC1` [Example 216, 2-(1-(4-((4-(4-(hydroxymethyl)piperidin-1-yl)phenyl)amino)-5-oxo-5,6-dihydropyrimido[4,5-d]pyridazin-2-yl)piperidin-4-yl)acetonitrile]: the IC50 (in assay [1] (read-out: IC50 Syk); on JAK2 (read-out: IC50 JAK)) was under 10 nM throughout. In addition, the inhibition at 1 µM in the assay with RBL2H3 cells (setting [2]) came to 92%. For the same compound, in the assay on RBL2H3 cells (setting [3]), the EC50 came out at 21 nM.
For `O=C(O)CC1CCC(c2ccc(Nc3nc(N4CCCCCC4)nc4cn[nH]c(=O)c34)cc2)CC1` (centres unmarked) [Example 91, 2-(4-(4-((2-(azepan-1-yl)-5-oxo-5,6-dihydropyrimido[4,5-d]pyridazin-4-yl)amino)phenyl)cyclohexyl)acetic acid], the results for the IC50 (in assay [1] (read-out: IC50 Syk); at JAK2 (read-out: IC50 JAK)) were under 10 nM and under 50 nM, respectively. Further, in the assay on RBL2H3 cells (setting [2]), the inhibition at 1 µM came out at 100%. Further, the EC50 in the assay with RBL2H3 cells (setting [3]) amounted to 154 nM.
Turning to `O=C(O)CC1CCN(c2nc(Nc3ccc(CN4CCNCC4)cc3)c3c(=O)[nH]ncc3n2)CC1` [Example 43, 2-(1-(5-oxo-4-((4-(piperazin-1-ylmethyl)phenyl)amino)-5,6-dihydropyrimido[4,5-d]pyridazin-2-yl)piperidin-4-yl)acetic acid hydrochloride], the results for the IC50 (in assay [1] (read-out: IC50 Syk); on JAK2 (read-out: IC50 JAK)) were under 50 nM and under 100 nM, respectively. Further, the inhibition at 1 µM with RBL2H3 cells (setting [2]) was found to be 13%.
For `N#CCC1CCN(c2nc(Nc3ccc(OCCN)cc3)c3c(=O)[nH]ncc3n2)CC1` [Example 200, 2-(1-(4-((4-(2-aminoethoxy)phenyl)amino)-5-oxo-5,6-dihydropyrimido[4,5-d]pyridazin-2-yl)piperidin-4-yl) acetonitrile], the IC50 in assay [1] (read-out: IC50 Syk) is under 10 nM; on JAK2 (read-out: IC50 JAK) it was under 50 nM. Moreover, the inhibition at 1 µM in the assay on RBL2H3 cells (setting [2]) is 71%. Further, the EC50 in the assay on RBL2H3 cells (setting [3]) amounted to 66 nM.
In the case of `CC(C)N(c1nc(Nc2ccc(CN3CCNCC3)cc2)c2c(=O)[nH]ncc2n1)C(C)C` [Example 54, 2-(diisopropylamino)-4-((4-(piperazin-1-ylmethyl)phenyl)amino)pyrimido[4,5-d]pyridazin-5(6H)-one hydrochloride], the IC50 (in assay [1] (read-out: IC50 Syk); at JAK2 (read-out: IC50 JAK)) was under 10 nM each time. For the same compound, the inhibition at 1 µM with RBL2H3 cells (setting [2]) is 100%. Moreover, the EC50 with RBL2H3 cells (setting [3]) amounted to 13 nM.
For the compound `O=c1[nH]ncc2nc(N3CCCCCC3)nc(Nc3ccc(OCCN4CCC(O)CC4)cc3)c12` [Example 172, 2-(azepan-1-yl)-4-((4-(2-(4-hydroxypiperidin-1-yl)ethoxy)phenyl)amino)pyrimido[4,5-d]pyridazin-5(6H)-one], the IC50 was under 50 nM in assay [1] (read-out: IC50 Syk) and under 10 nM at JAK2 (read-out: IC50 JAK). Also, the inhibition at 1 µM in the assay on RBL2H3 cells (setting [2]) is 50%. The EC50 in the assay with RBL2H3 cells (setting [3]) turned out to be 101 nM.
Taken in the same sequence, the figures for `O=C(O)CC1CCCN(c2ccc(Nc3nc(N4CCCCCC4)nc4cn[nH]c(=O)c34)cc2)C1` (centres unmarked) [Example 233, 2-(1-(4-((2-(azepan-1-yl)-5-oxo-5,6-dihydropyrimido[4,5-d]pyridazin-4-yl)amino)phenyl)piperidin-3-yl)acetic acid] were under 10 nM, under 10 nM, 20% and 174 nM.
Taken in the same sequence, the figures for `N#CCC1CCN(c2nc(Nc3ccc(N4CCCC(CO)C4)cc3)c3c(=O)[nH]ncc3n2)CC1` (centres unmarked) [Example 284, 2-(1-(4-((4-(3-(hydroxymethyl)piperidin-1-yl)phenyl)amino)-5-oxo-5,6-dihydropyrimido[4,5-d]pyridazin-2-yl)piperidin-4-yl)acetonitrile] were under 10 nM, under 10 nM, 92% and 21 nM.
In the same order, the values of `N#CCC1CCN(c2nc(Nc3ccc(CCC(=O)O)cc3)c3c(=O)[nH]ncc3n2)CC1` [Example 305, 3-(4-((2-(4-(cyanomethyl)piperidin-1-yl)-5-oxo-5,6-dihydropyrimido[4,5-d]pyridazin-4-yl)amino)phenyl)propanoic acid] are under 10 nM, under 50 nM, 17% and 834 nM.
As for `O=c1[nH]ncc2nc(N3CCCCCC3)nc(Nc3ccc(OC4CCNCC4)cc3)c12` [Example 292, 2-(azepan-1-yl)-4-((4-(piperidin-4-yloxy)phenyl)amino)pyrimido[4,5-d]pyridazin-5(6H)-one hydrochloride], the IC50 (in assay [1] (read-out: IC50 Syk); on JAK2 (read-out: IC50 JAK)) was under 10 nM throughout. Also, the inhibition at 1 µM in the assay on RBL2H3 cells (setting [2]) came out at 65%. Besides, the EC50 with RBL2H3 cells (setting [3]) was 83 nM.
In the case of `O=c1[nH]ncc2nc(N3CCCCCC3)nc(Nc3ccc(CCCN4CCC(O)CC4)cc3)c12` [Example 179, 2-(azepan-1-yl)-4-((4-(3-(4-hydroxypiperidin-1-yl)propyl)phenyl)amino)pyrimido[4,5-d]pyridazin-5(6H)-one], the IC50 (in assay [1] (read-out: IC50 Syk); on JAK2 (read-out: IC50 JAK)) was under 10 nM in each case. Further, the inhibition at 1 µM in the assay on RBL2H3 cells (setting [2]) is 45%. Besides, in the assay on RBL2H3 cells (setting [3]), the EC50 was determined as 9 nM.
For `N#CCC1CCN(c2nc(Nc3ccc(N4CCNCC4)nc3)c3c(=O)[nH]ncc3n2)CC1` [Example 231, 2-(1-(5-oxo-4-((6-(piperazin-1-yl)pyridin-3-yl)amino)-5,6-dihydropyrimido[4,5-d]pyridazin-2-yl)piperidin-4-yl)acetonitrile], the IC50 in assay [1] (read-out: IC50 Syk) is under 50 nM; at JAK2 (read-out: IC50 JAK), under 100 nM. Further, the inhibition at 1 µM with RBL2H3 cells (setting [2]) was determined as 0%. The concentration giving a half-maximal response (EC50) with RBL2H3 cells (setting [3]) was determined as 367 nM.
Taken in the same sequence, the figures for `CN(c1nc(Nc2ccc(N3CCC(CC(=O)O)CC3)cc2)c2c(=O)[nH]ncc2n1)C1CCCCC1` [Example 161, 2-(1-(4-((2-(cyclohexyl(methyl)amino)-5-oxo-5,6-dihydropyrimido[4,5-d]pyridazin-4-yl)amino)phenyl)piperidin-4-yl)acetic acid] were under 50 nM, under 10 nM, 74% and 39 nM.
For the compound `CCN1CCN(Cc2ccc(Nc3nc(-c4ccccc4)nc4cn[nH]c(=O)c34)cc2)CC1` [Example 6, 4-(4-((4-ethylpiperazin-1-yl)methyl)phenylamino)-2-phenylpyrimido[4,5-d]pyridazin-5(6H)-one], the IC50 (in assay [1] (read-out: IC50 Syk); at JAK2 (read-out: IC50 JAK)) was under 50 nM throughout. The inhibition at 1 µM in the assay with RBL2H3 cells (setting [4]) was 50%.
As for `O=c1[nH]ncc2nc(-c3ccccc3)nc(Nc3ccc(N4CCNCC4)cc3)c12` [Example 8, 2-phenyl-4-(4-(piperazin-1-yl)phenylamino)pyrimido[4,5-d]pyridazin-5(6H)-one], the half-maximal inhibitory concentration (IC50) (in assay [1] (read-out: IC50 Syk); at JAK2 (read-out: IC50 JAK)) was under 10 nM each time. Besides, the inhibition at 1 µM in the assay on RBL2H3 cells (setting [4]) turned out to be 98%.
Regarding `CCN1CCN(c2ccc(Nc3nc(N4CCCCCC4)nc4cn[nH]c(=O)c34)cc2)CC1` [Example 180, 2-(azepan-1-yl)-4-((4-(4-ethylpiperazin-1-yl)phenyl)amino)pyrimido[4,5-d]pyridazin-5(6H)-one], the IC50 (in assay [1] (read-out: IC50 Syk); at JAK2 (read-out: IC50 JAK)) was under 10 nM throughout. The inhibition at 1 µM with RBL2H3 cells (setting [2]) stood at 70%. For the same compound, the EC50 in the assay on RBL2H3 cells (setting [3]) came out at 3 nM.
In the case of `CC(C)(O)C(=O)N1CCN(c2ccc(Nc3nc(N4CCCCCC4)nc4cn[nH]c(=O)c34)cc2)CC1` [Example 214, 2-(azepan-1-yl)-4-((4-(4-(2-hydroxy-2-methylpropanoyl)piperazin-1-yl)phenyl)amino)pyrimido[4,5-d]pyridazin-5(6H)-one], the IC50 (in assay [1] (read-out: IC50 Syk); at JAK2 (read-out: IC50 JAK)) was under 10 nM in each case. For the same compound, in the assay with RBL2H3 cells (setting [2]), the inhibition at 1 µM worked out at 78%. For the same compound, the EC50 in the assay on RBL2H3 cells (setting [3]) was found to be 19 nM.
In the case of `O=C(O)CCC1CCN(c2ccc(Nc3nc(-c4ccccc4)nc4cn[nH]c(=O)c34)cc2)CC1` [Example 132, 3-(1-(4-((5-oxo-2-phenyl-5,6-dihydropyrimido[4,5-d]pyridazin-4-yl)amino)phenyl)piperidin-4-yl)propanoic acid], the IC50 in assay [1] (read-out: IC50 Syk) was under 50 nM; at JAK2 (read-out: IC50 JAK), under 10 nM. The inhibition at 1 µM in the assay with RBL2H3 cells (setting [2]) was determined as 99%. In addition, in the assay with RBL2H3 cells (setting [3]), the EC50 was 24 nM.
In the case of `O=C(OCOP(=O)(O)O)C1CC12CCN(c1ccc(Nc3nc(N4CCCCCC4)nc4cn[nH]c(=O)c34)cc1)CC2` (centres unmarked) [Example 219, (phosphonooxy)methyl 6-(4-((2-(azepan-1-yl)-5-oxo-5,6-dihydropyrimido[4,5-d]pyridazin-4-yl)amino)phenyl)-6-azaspiro[2.5]octane-1-carboxylate], the IC50 (in assay [1]; on JAK2) was under 10 nM in each case. Further, in the assay on RBL2H3 cells (RBL-2H3, read-out: Degranulation % inhibition at 1 μM), the inhibition at 1 µM was determined as 45%. Also, the EC50 in the assay on RBL2H3 cells (RBL-2H3, read-out: Degranulation EC50 (nM)) amounted to 96 nM.
Consider `N#CCC1CCN(c2nc(Nc3ccc(N4CCC(CCC(=O)O)CC4)cc3)c3c(=O)[nH]ncc3n2)CC1` [Example 147, 3-(1-(4-((2-(4-(cyanomethyl)piperidin-1-yl)-5-oxo-5,6-dihydropyrimido[4,5-d]pyridazin-4-yl)amino)phenyl)piperidin-4-yl)propanoic acid], for which the IC50 was under 10 nM in assay [1] (read-out: IC50 Syk) and under 50 nM on JAK2 (read-out: IC50 JAK). Further, the inhibition at 1 µM in the assay with RBL2H3 cells (setting [2]) turned out to be 49%. For the same compound, the EC50 with RBL2H3 cells (setting [3]) stood at 152 nM.
